The values below come from patent publication US5936097A, “4,9-ethano-benzo(F)isoindole derivatives as farnesyl transferase inhibitors” (Rhone-Poulenc Rorer, S.A., priority 1995, dated 1999).

pIC50: −log10 of the molar value. Structures can show the parent of a compound that is named as a salt.

One test addresses T1, human farnesyl transferase (Homo sapiens, UniProt P49354+P49356).
T1 construct: human farnesyl transferase purified from THP1 cell cultures; endogenous in cells; host or cells: THP1 cell cultures (enzyme purified from the cells)
The experiment in a line: inhibition of farnesyl transferase ((3H) farnesyl transfer from (3H) FPP to p21 H-ras). It is filed as biochemical.
Details: not given
The procedure, abridged:
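Radiometric transfer of [3H]farnesyl from 4.5 pmol [3H]FPP to 200 pmol p21 H-ras by ~5 ng human enzyme purified from THP1 cells, in 50 mM Tris-HCl, 5 mM MgCl2, 5 mM DTT, 0.2% octyl glucoside, 20 min at 37 °C. Protein precipitated with SDS/TCA in methanol, filter-bound counts measured; IC50 from 9 concentrations, triplicate.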
In general, pIC50 refers to the negative decadic logarithm of the IC50, by convention in mol/L. The molecule `Cc1ccccc1CC(=O)N1C[C@@H]2[C@]3(c4ccccc4)CC[C@@H](c4ccccc43)[C@]2(C(=O)O)C1` (relative stereo) [Example 62, (3aRS,4SR,9SR,9aRS)-4,9-Ethano-2-(2-methylphenyl)acetyl-9-phenyl-2,3,3a,4,9,9a-hexahydro-1H-benzo[f]isoindole-3a-carboxylic acid] gave a pIC50 of 5.94.
For the molecule `COC(=O)[C@]12CN(C(=O)Cc3ccccc3OC)C[C@H]1[C@@]1(c3ccccc3)CC[C@@H]2c2ccccc21` (relative stereo) [Example 1, methyl ester of (3aRS, 4SR, 9SR, 9aRS)-4,9-ethano-2-(2-methoxyphenyl)acetyl-9-phenyl-2,3,3a,4,9,9a-hexahydro-1H-benzo[f]isoindole-3a-carboxylic acid], the pIC50 is 6.39.
The molecule `COc1ccccc1[C@@H](C)C(=O)N1CC2C3(c4ccccc4)CCC(c4ccccc43)C2(C(=O)O)C1` (single isomer, unassigned) [Example 33] gave a pIC50 of 5.69.
In turn, `COc1ccccc1NC(=O)N1C[C@@H]2[C@]3(c4ccccc4)CC[C@@H](c4ccccc43)[C@]2(C(=O)O)C1` (relative stereo) [Example 66, (3aRS,4SR,9SR,9aRS)-4,9-Ethano-2-(2-methoxyphenyl)aminocarbonyl-9-phenyl-2,3,3a,4,9,9a-hexahydro-1H-benzo[f]isoindole-3a-carboxylic acid] had a pIC50 of 5.04.

The test is the same for the next values; noted with them: human farnesyl transferase purified from THP1 cell cultures; p21 H-ras substrate; 20 minutes at 37° C.; 9 concentrations; read-out: in vitro inhibitory activity IC50.
`C=C(C(=O)N1C[C@H]2[C@@]3(c4ccccc4)CC[C@H](c4ccccc43)[C@@]2(C(=O)O)C1)c1ccccc1OC` [Example 39, (3aS,4R,9R,9aS)-4,9-ethano-2-[2-(2-methoxyphenyl)prop-2-en-1-oyl]-9-phenyl-1,2,3,3a,9,9a-hexahydro-1H-benzo[f]isoindole-3a-carboxylic acid]: the pIC50 is 7.30.
Take `C/C=C(/C(=O)N1C[C@@H]2[C@]3(c4ccccc4)CC[C@@H](c4ccccc43)[C@]2(C(=O)O)C1)c1ccccc1OC` (racemic) [Example 78, (3aRS,4SR,9SR,9aRS)-4,9-ethano-2-[2(E)-(2-methoxyphenyl)-2-butenoyl]-9-phenyl-2,3,3a,4,9,9a-hexahydro-1H-benzo[f]isoindole-3a-carboxylic acid]: the pIC50 is 6.19.
On to `C=C(C(=O)N1C[C@H]2[C@@]3(c4ccccc4)CC[C@H](c4ccccc43)[C@@]2(C(=O)N[C@H](C)c2cccc3ccccc23)C1)c1ccccc1OC` [Example 83, (3aS,4R,9R,9aS)-N-[(R)-1-(1-naphthyl)ethyl]-4,9-ethano-2-[(2-methoxyphenyl)prop-2-en-1-oyl]-9-phenyl-2,3,3a,4,9,9a-hexahydro-1H-benzo[f]isoindole-3a-carboxamide], for which the pIC50 was 5.29.
`COc1ccccc1CC(=O)N1C[C@H]2[C@@]3(c4ccccc4)CC[C@H](c4ccccc43)[C@@]2(C(=O)NC(Cc2c[nH]cn2)C(=O)O)C1` (stereo partly drawn) [Example 8, hydrochloride of N-[(3aRS, 4SR, 9SR, 9aRS)-4,9-ethano-2-(2-methoxyphenyl)acetyl-9-phenyl-2,3,3a,4,9,9a-hexahydro-1H-benzo[f]isoindolyl-3a-carbonyl]histidine]: the pIC50 is 6.72.
Turning to `COc1ccccc1CC(=O)N1C[C@H]2[C@@]3(c4ccccc4)CC[C@H](c4ccccc43)[C@@]2(CC(=O)NCC(=O)O)C1` (relative stereo) [Example 20, N-[(3aRS, 4SR, 9SR, 9aRS)-4,9-ethano-2-(2-methoxyphenyl)acetyl-9-phenyl-2,3,3a,4,9,9a-hexahydro-1H-benzo[f]isoindol-3a-yl]acetylglycine], the pIC50 was 5.32.
Turning to `O=C(Cc1c[nH]c2ccc(Br)cc12)N1C[C@@H]2[C@]3(c4ccccc4)CC[C@@H](c4ccccc43)[C@]2(C(=O)O)C1` (relative stereo) [Example 35, (3aRS, 4SR, 9SR, 9aRS)-4,9-ethano-2-(5-bromo-3-indolyl)acetyl-9-phenyl-2,3,3a,4,9,9a-hexahydro-1H-benzo [f]isoindole-3a-carboxylic acid], the pIC50 is 5.67.
Turning to `C=C(C(=O)N1C[C@H]2[C@@]3(c4ccccc4)CC[C@H](c4ccccc43)[C@@]2(C(=O)NC2CCc3ccccc32)C1)c1ccccc1OC` (stereo partly drawn) [Example 84, (3aS,4R,9R,9aS)-N-[(R,S)-1-indanyl]-4,9-ethano-2-[(2-methoxyphenyl)prop-2-en-1-oyl]-9-phenyl-2,3,3a,4,9,9a-hexahydro-1H-benzo[f]isoindole-3a-carboxamide], the pIC50 was 6.48.
`COc1ccccc1CC(=O)N1C[C@H]2[C@@]3(c4ccccc4)CC[C@H](c4ccccc43)[C@@]2(CC(=O)NC(CCSC)C(=O)O)C1` (stereo partly drawn) [Example 21, N-[(3aRS, 4SR, 9SR, 9aRS)-4,9-ethano-2-(2-methoxyphenyl)acetyl-9-phenyl-2,3,3a,4,9,9a-hexahydro-1H-benzo[f]isoindole-3a-yl]acetylmethionine]: the pIC50 was 5.43.
For `C=C(C(=O)N1C[C@@H]2[C@]3(c4ccccc4)CC[C@@H](c4ccccc43)[C@]2(C(=O)NOC)C1)c1ccccc1OC` (racemic) [Example 44, (3aRS,4SR,9SR,9aRS)-N-methoxy-4,9-ethano-2-[2-(2-methoxyphenyl)prop-2-en-1-oyl]-9-phenyl-2,3,3a,4,9,9a-hexahydro-1H-benzo[f]isoindole-3a-carboxamide], the pIC50 was 6.96.
Regarding `C=Cc1ccc2c(c1)[C@]1(c3ccccc3)CC[C@H]2[C@@]2(C(=O)O)CN(C(=O)Cc3ccccc3OC)C[C@@H]12` (relative stereo) [Example 73, (3aRS,4SR,9SR,9aRS)-4,9-ethano-2-(2-methoxyphenyl)acetyl-9-phenyl-7-vinyl-2,3,3a,4,9,9a-hexahydro-1H-benzo[f]isoindole-3a-carboxylic acid], the pIC50 is 5.50.
For the molecule `CCOC(=O)[C@]12CN(C(=O)Cc3ccccc3OC)C[C@H]1[C@@]1(c3ccccc3)CC[C@@H]2c2ccccc21` (relative stereo) [Example 10, ethyl ester of (3aRS, 4SR, 9SR, 9aRS)-4,9-ethano-2-(2-methoxyphenyl)acetyl-9-phenyl-2,3,3a,4,9,9a-hexahydro-1H-benzo[f]isoindol-3a-carboxylic acid], the pIC50 is 5.36.
As to `COc1ccccc1CC(=O)N1C[C@H]2[C@@]3(c4ccccc4)CC[C@H](c4ccccc43)[C@@]2(C(=O)NC(CCC(=O)O)C(=O)O)C1` (stereo partly drawn) [Example 7], the pIC50 was 6.24.
With `CC(=O)Oc1ccccc1CC(=O)N1C[C@H]2[C@@]3(c4ccccc4)CC[C@H](c4ccccc43)[C@@]2(C(=O)O)C1` (relative stereo) [Example 29, (3aRS, 4SR, 9SR, 9aRS)-4,9-ethano-2-(2-acetoxyphenyl)acetyl-9-phenyl-2,3,3a,4,9,9a-hexahydro-1H-benzo[f]isoindole-3a-carboxylic acid], the pIC50 is 5.64.
`COc1ccc2c(c1)[C@]1(c3ccccc3)CC[C@H]2[C@@]2(C(=O)O)CN(C(=O)Cc3ccccc3OC)C[C@@H]12` (relative stereo) [Example 70, (3aRS,4SR,9SR,9aRS)-4,9-ethano-7-methoxy-2-(2-methoxy-phenyl)acetyl-9-phenyl-2,3,3a,4,9,9a-hexahydro-1H-benzo[f]isoindole-3a-carboxylic acid]: the pIC50 was 5.55.
Turning to `C=C(C(=O)N1C[C@H]2[C@@]3(c4ccccc4)CC[C@H](c4ccccc43)[C@@]2(C(=O)NCc2cccs2)C1)c1ccccc1OC` [Example 95, (3aS,4R,9R,9aS)-N-[(2-thienyl)-methyl]-4,9-ethano-2-[(2-methoxyphenyl)prop-2-en-1-oyl]-9-phenyl-2,3,3a,4,9,9a-hexahydro-1H-benzo[f]isoindole-3a-carboxamide], the pIC50 is 6.57.
Turning to `C/C=C(/C(=O)N1C[C@H]2[C@@]3(c4ccccc4)CC[C@H](c4ccccc43)[C@@]2(C(=O)OC)C1)c1ccccc1OC` (relative stereo) [Example 77, methyl ester of (3aRS,4SR,9SR,9aRS)-4,9-ethano-2-[2(E)-(2-methoxyphenyl)-2-butenoyl]-9-phenyl-2,3,3a,4,9,9a-hexahydro-1H-benzo[f]isoindole-3a-carboxylic acid], the pIC50 is 5.17.
For `C=C(C(=O)N1C[C@H]2[C@@]3(c4ccccc4)CC[C@H](c4ccccc43)[C@@]2(C(=O)NCc2cccc(C(F)(F)F)c2)C1)c1ccccc1OC` [Example 89, (3aS,4R,9R,9aS)-N-[3-trifluorobenzyl]-4,9-ethano-2-[(2-methoxyphenyl)prop-2-en-1-oyl]-9-phenyl-2,3,3a,4,9,9a-hexahydro-1H-benzo[f]isoindole-3a-carboxamide], the pIC50 was 6.11.
`COc1ccccc1CC(=O)N1C[C@@H]2[C@]3(c4ccccc4)CC[C@@H](c4ccccc43)[C@]2(C(=O)N(C)C)C1` (relative stereo) [Example 55, (3aRS,4SR,9SR,9aRS)-N,N-dimethyl-4,9-ethano-2-(2-methoxyphenyl)acetyl-9-phenyl-2,3,3a,4,9,9a-hexahydro-1H-benzo[f]isoindole-3a-carboxamide]: the pIC50 is 5.41.
For `COc1ccccc1CC(=O)N1C[C@H]2[C@@]3(c4ccccc4)CC[C@H](c4ccccc43)[C@@]2(C(=O)NCC(=O)O)C1` [Example 48, N-[4,9-ethano-2-(2-methoxyphenyl)acetyl-9-phenyl-2,3,3a(S),4(R),9(R),9a(S)-hexahydro-1H-benzo[f]isoindol-3a-yl]carbonylglycine], the pIC50 was 6.13.
On the same count and under the same terms, then `COc1ccccc1CC(=O)N1C[C@H]2[C@@]3(c4ccccc4)CC[C@H](c4ccccc43)[C@@]2(C(=O)NC(CC(=O)O)C(=O)O)C1` (stereo partly drawn) [Example 6, N-[(3aRS, 4SR, 9SR, 9aRS)-4,9-ethano-2-(2-methoxyphenyl)acetyl-9-phenyl-2,3,3a,4,9,9a-hexahydro-1H-benzo[f]isoindolyl-3a-carbonyl]aspartic acid], with 5.96.
